Inconclusive results and toxic doses are left out.

This is an account of results in PubChem BioAssay AID256 (DTP/NCI, 2004).

For this experiment, the system named is CD2F1 mice, L1210 leukemia ip, survival T/C. The experiment is described as follows: NCI In Vivo Anticancer Drug Screen. Data for tumor model L1210 Leukemia (intraperitoneal) in CD2F1 (CDF1) mice. The note with it: higher = longer survival. An outline of the steps: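 In this screen, transplantable tumors were grown in mice given either the compound or its vehicle. Results were expressed as the treated measurement relative to the control measurement.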

The mark [1] stands for this setting: endpoint: mean survival time, dose: 100.0 mg/kg/injection, schedule: Q01DX009 (ip), vehicle: saline.
Setting [2] is: endpoint: mean survival time, dose: 100.0 mg/kg/injection, schedule: Q04DX003 (ip), vehicle: saline.
Where [3] appears, read: endpoint: mean survival time, dose: 100.0 mg/kg/injection, schedule: Q04DX003 (ip), vehicle: saline with Tween-80.
[4] abbreviates: endpoint: mean survival time, dose: 200.0 mg/kg/injection, schedule: Q04DX003 (ip), vehicle: saline with Tween-80.
Setting [5] is: endpoint: mean survival time, dose: 400.0 mg/kg/injection, schedule: Q04DX003 (ip), vehicle: saline with Tween-80.
Setting [6] is: endpoint: mean survival time, dose: 75.0 mg/kg/injection, schedule: Q04DX003 (ip), vehicle: saline with Tween-80.
Where [7] appears, read: endpoint: mean survival time, dose: 100.0 mg/kg/injection, schedule: Q04DX002 (ip), vehicle: saline with Tween-80.
Where [8] appears, read: endpoint: mean survival time, dose: 200.0 mg/kg/injection, schedule: Q04DX002 (ip), vehicle: saline with Tween-80.
Setting [9] is: endpoint: mean survival time, dose: 400.0 mg/kg/injection, schedule: Q04DX002 (ip), vehicle: saline with Tween-80.

As for `CCOC(=O)Nc1cc(NC(C)CCCN(CC)CC)c2ncc(-c3ccccc3)nc2n1` (stereo not given) (tested in a mixture with another compound), the T/C (endpoint: mean survival time, dose: 25.0 mg/kg/injection, schedule: Q01DX009 (ip), vehicle: saline) is 89 % of control; the T/C (endpoint: mean survival time, dose: 25.0 mg/kg/injection, schedule: Q04DX003 (ip), vehicle: saline) was 98 % of control; the T/C (endpoint: mean survival time, dose: 50.0 mg/kg/injection, schedule: Q01DX009 (ip), vehicle: saline) is 94 % of control; the T/C (endpoint: mean survival time, dose: 50.0 mg/kg/injection, schedule: Q04DX003 (ip), vehicle: saline) is 98 % of control; the T/C under setting [1] was 95 % of control; the T/C under setting [2] is 108 % of control.

On to `CC(C)OC(=S)S`, for which the T/C under setting [1] is 101 % of control; the T/C under setting [2] was 100 % of control; the T/C (endpoint: mean survival time, dose: 200.0 mg/kg/injection, schedule: Q01DX009 (ip), vehicle: saline) was 102 % of control; the T/C (endpoint: mean survival time, dose: 200.0 mg/kg/injection, schedule: Q04DX003 (ip), vehicle: saline) is 97 % of control; the T/C (endpoint: mean survival time, dose: 400.0 mg/kg/injection, schedule: Q01DX009 (ip), vehicle: saline) is 107 % of control; the T/C (endpoint: mean survival time, dose: 400.0 mg/kg/injection, schedule: Q04DX003 (ip), vehicle: saline) is 88 % of control.

In the case of `O=C1OC(=O)N2N=CC=CC12` (stereo not given), the T/C runs as follows: (endpoint: mean survival time, dose: 100.0 mg/kg/injection, schedule: Q01DX001 (ip), vehicle: saline sonified) 96 % of control; (endpoint: mean survival time, dose: 200.0 mg/kg/injection, schedule: Q01DX001 (ip), vehicle: saline sonified) 98 % of control; (endpoint: mean survival time, dose: 400.0 mg/kg/injection, schedule: Q01DX001 (ip), vehicle: saline sonified) 94 % of control.

As to `CC(=O)C1CCC2C3=CC=C4CC(OC(=O)c5ccccc5)CCC4(C)C3CCC12C` (stereo not given), the T/C runs as follows: under setting [3], 101 % of control; under setting [4], 98 % of control; under setting [5], 102 % of control.

Regarding `CN1CCC(Br)(C(=O)c2ccccc2)CC1`, the T/C is 100 % of control (endpoint: mean survival time, dose: 37.5 mg/kg/injection, schedule: Q01DX009 (ip), vehicle: saline with Tween-80); 95 % of control (endpoint: mean survival time, dose: 75.0 mg/kg/injection, schedule: Q01DX009 (ip), vehicle: saline with Tween-80); 97 % of control under setting [6]; 92 % of control (endpoint: mean survival time, dose: 150.0 mg/kg/injection, schedule: Q01DX009 (ip), vehicle: saline with Tween-80); 98 % of control (endpoint: mean survival time, dose: 150.0 mg/kg/injection, schedule: Q04DX003 (ip), vehicle: saline with Tween-80).

In the case of `CCN(CC)CCCC(C)NCCCCNC(C)CCCN(CC)CC` (stereo not given), the T/C is 90 % of control (endpoint: mean survival time, dose: 12.5 mg/kg/injection, schedule: Q01DX009 (ip), vehicle: water) and 92 % of control (endpoint: mean survival time, dose: 25.0 mg/kg/injection, schedule: Q01DX009 (ip), vehicle: water).

For `O=C(COc1ccc(Cl)c(Cl)c1)Nc1cccc(C(=O)CCl)c1`, the T/C is 95 % of control under setting [3], 101 % of control under setting [4] and 103 % of control under setting [5].

For `Cc1cccc(C)c1NC(=S)N1CCC(CCCC2CCN(C(=S)Nc3c(C)cccc3C)CC2)CC1`, the T/C was 105 % of control under setting [3], 96 % of control under setting [4] and 96 % of control under setting [5].

As to `O=c1cc(-c2ccc(S(=O)(=O)F)cc2)[nH]c2ccc([N+](=O)[O-])cc12`, the T/C (endpoint: mean survival time, dose: 100.0 mg/kg/injection, schedule: Q01DX001 (ip), vehicle: Klucel (hydroxypropylcellulose) (HPC)) is 108 % of control; the T/C (endpoint: mean survival time, dose: 200.0 mg/kg/injection, schedule: Q01DX001 (ip), vehicle: Klucel (hydroxypropylcellulose) (HPC)) was 101 % of control; the T/C (endpoint: mean survival time, dose: 400.0 mg/kg/injection, schedule: Q01DX001 (ip), vehicle: Klucel (hydroxypropylcellulose) (HPC)) is 112 % of control.

For `CCOC(=O)N1C2CC(C3C2N3S(=O)(=O)c2ccccc2)N1C(=O)OCC` (stereo not given), the T/C under setting [3] is 104 % of control, the T/C under setting [4] is 103 % of control and the T/C under setting [5] is 90 % of control.

Turning to `O=P(NCCCl)(NCCCl)Oc1ccccc1`, the T/C runs as follows: (endpoint: mean survival time, dose: 62.5 mg/kg/injection, schedule: Q01DX001 (ip), vehicle: water) 103 % of control; (endpoint: mean survival time, dose: 125.0 mg/kg/injection, schedule: Q01DX001 (ip), vehicle: water) 97 % of control; (endpoint: mean survival time, dose: 250.0 mg/kg/injection, schedule: Q01DX001 (ip), vehicle: water) 98 % of control; (endpoint: mean survival time, dose: 500.0 mg/kg/injection, schedule: Q01DX001 (ip), vehicle: water) 98 % of control.

Take `CCOc1ccccc1/C=C1\N=C(c2ccc(Cl)cc2)OC1=O`: the T/C is 94 % of control under setting [7], 98 % of control under setting [8] and 94 % of control under setting [9].

As to `CCCCCCNc1nc(NCCCCCC)c2[nH]c(NCCCCCC)nc2n1`, the T/C (endpoint: median survival time, dose: 25.0 mg/kg/injection, schedule: Q01DX009 (ip), vehicle: saline with Tween-80) was 107 % of control; the T/C (endpoint: median survival time, dose: 50.0 mg/kg/injection, schedule: Q01DX009 (ip), vehicle: saline with Tween-80) was 107 % of control; the T/C (endpoint: median survival time, dose: 100.0 mg/kg/injection, schedule: Q01DX009 (ip), vehicle: saline with Tween-80) is 106 % of control; the T/C (endpoint: median survival time, dose: 200.0 mg/kg/injection, schedule: Q01DX009 (ip), vehicle: saline with Tween-80) was 105 % of control.

On to `O=C(O)c1ccccc1C(=O)c1ccc(CBr)cc1`, for which the T/C by setting is: (endpoint: mean survival time, dose: 6.25 mg/kg/injection, schedule: Q04DX003 (ip), vehicle: saline with Tween-80) 93 % of control; (endpoint: mean survival time, dose: 12.5 mg/kg/injection, schedule: Q04DX003 (ip), vehicle: saline with Tween-80) 101 % of control; (endpoint: mean survival time, dose: 25.0 mg/kg/injection, schedule: Q04DX003 (ip), vehicle: saline with Tween-80) 101 % of control.

As to `CC12CCC(=O)C=C1CCC1C2CCC2(C)C(C(=O)Cn3c(=O)[nH]cc(F)c3=O)CCC12` (stereo not given), the T/C is 94 % of control (endpoint: mean survival time, dose: 12.5 mg/kg/injection, schedule: Q04DX003 (ip), vehicle: Klucel (hydroxypropylcellulose) (HPC)); 94 % of control (endpoint: mean survival time, dose: 25.0 mg/kg/injection, schedule: Q04DX003 (ip), vehicle: Klucel (hydroxypropylcellulose) (HPC)); 97 % of control (endpoint: mean survival time, dose: 50.0 mg/kg/injection, schedule: Q04DX003 (ip), vehicle: Klucel (hydroxypropylcellulose) (HPC)); 91 % of control (endpoint: mean survival time, dose: 100.0 mg/kg/injection, schedule: Q04DX003 (ip), vehicle: Klucel (hydroxypropylcellulose) (HPC)); 95 % of control (endpoint: mean survival time, dose: 200.0 mg/kg/injection, schedule: Q04DX003 (ip), vehicle: Klucel (hydroxypropylcellulose) (HPC)).

Take `CCOC(=O)COc1c(C(C)(C)C)cc([N+](=O)[O-])c(C)c1[N+](=O)[O-]`: the T/C reads like this: (endpoint: mean survival time, dose: 100.0 mg/kg/injection, schedule: Q01DX001 (ip), vehicle: saline with Tween-80) 105 % of control; (endpoint: mean survival time, dose: 200.0 mg/kg/injection, schedule: Q01DX001 (ip), vehicle: saline with Tween-80) 111 % of control; (endpoint: mean survival time, dose: 400.0 mg/kg/injection, schedule: Q01DX001 (ip), vehicle: saline with Tween-80) 96 % of control.

In the case of `CC(=O)Nc1ccc2c(c1)CCCC2`, the T/C was 101 % of control under setting [7], 104 % of control under setting [8] and 104 % of control under setting [9].

Consider `CC1C2C=CC1C(c1c3ccc(=O)cc-3oc3cc(O)ccc13)C2C(=O)O` (stereo not given), for which the T/C is 103 % of control under setting [3], 97 % of control under setting [4] and 111 % of control under setting [5].

As for `Cc1ccc(Nc2c3ccccc3nc3ccccc23)cc1`, the T/C reads like this: (endpoint: mean survival time, dose: 37.5 mg/kg/injection, schedule: Q04DX003 (ip), vehicle: saline with Tween-80) 101 % of control; (endpoint: mean survival time, dose: 40.0 mg/kg/injection, schedule: Q04DX003 (ip), vehicle: other) 120 % of control; under setting [6], 102 % of control; (endpoint: mean survival time, dose: 150.0 mg/kg/injection, schedule: Q04DX003 (ip), vehicle: other) 160 % of control.

On to `CCC(O)C(C)(C)[N+](=O)[O-]` (stereo not given), for which the T/C is 95 % of control (endpoint: mean survival time, dose: 5.0 mg/kg/injection, schedule: Q01DX009 (ip), vehicle: saline); 98 % of control (endpoint: mean survival time, dose: 10.0 mg/kg/injection, schedule: Q01DX009 (ip), vehicle: saline); 98 % of control (endpoint: mean survival time, dose: 20.0 mg/kg/injection, schedule: Q01DX009 (ip), vehicle: saline).

For the molecule `COc1nn(O)cc2cc(C(=O)O)nc1-2`, the T/C is, setting by setting: (endpoint: mean survival time, dose: 12.5 mg/kg/injection, schedule: Q04DX002 (ip), vehicle: saline with Tween-80) 104 % of control; (endpoint: mean survival time, dose: 25.0 mg/kg/injection, schedule: Q04DX002 (ip), vehicle: saline with Tween-80) 104 % of control; (endpoint: mean survival time, dose: 50.0 mg/kg/injection, schedule: Q04DX002 (ip), vehicle: saline with Tween-80) 101 % of control.
